According to patent US7524836B2, “Nitrooxyderivative steroidal compounds” (Nicox S.A., priority 2001, dated 2009):
Like-named read-outs stand apart in the source and are kept apart here.

How the values were obtained:
[1] = test system: rats treated or not treated with L-NAME; conditions: rat, in vivo, ip
Experimental: The endothelial dysfunction is evaluated by determining the damage the hepatic damage (GPT increase), and the vascular endothelium or cardiovascular damage (blood hypertension) induced by L-NAME admirnistration.
The animals (Long Evans rats, average weight 350-450 g) are divided n groups as herein below described. The group receiving L-NAME is treated for 4 weeks with said compound dissolved at the concentration of 400 mg/litre in drinking water. The following groups (No. 10 animals for group) are constituted:
• 1° group: treatment: only carrier (physiologic solution), • 2° group: trealtmrent: carrier +L-NAME, B) Groups Treated with the Drug: • 3° group: treatment: carrier+drug, • 4° group: treatment: carrier+drug+L-NAME.
Each drug is administered by intraperitoneal route once a day for 4 weeks.
Four hours after the last administration the blood-pressure is determined.
Damage to the vascular endothelium is determined, as said by the cardiovascular effects induced by L-NAME (increase of the blood pressure).
In this experiment vascular tolerability, i.e. the rise in blood pressure (vascular damage) was determined in the animals of groups b and c and expressed as percentages to that of the control group a, assumed to be 100%.

[2] = test system: rats treated or not treated with L-NAME; design: species or system rat (Long Evans); conditions: rat, in vivo, ip; for GPT var. %: 100 mg/kg
Experimental: In those groups of rats treated, respectively, with ursodesoxycholic acid and chenodeoxycholic acid and thereof corresponding compounds according to the present invention, GPT is determined.
At the end of the four weeks access to water is prevented and after 24 hours the animals are sacrificed.
1st group receiving L-NAME (group d-comparative) administered at the same time with 100 mg/Kg (0.25 mmoles/Kg) of ursodesoxycholic acid+49.5 mg/Kg (0.25 mmoles/Kg) of ferulic acid in the same above carrier, • c. 2nd group receiving L-NAME (group e) administered with 175 mg/Kg (0.25 mmoles/Kg) of the ursodesoxycholic derivative according to the invention (ref. ex. 1) in the same above carrier.

[3] = Test 4: inhibition of radical production from DPPH; conditions: tested substance 10^-4 M (100 μM) in methanol, 30 minutes, absorbance at 517 nm
Experimental: [drawing 21] • wherein test 4 is the following: it is an analytical determination carried out by adding portions of methanol solutions of the precursor of B or B1 at a 10^−4 M concentration, to a methanol solution of DPPH (2,2-diphenyl-1-picryl hydrazyl-free radical); after having maintained the solution at room temperature away from light for 30 minutes, it is read the absorbance at the wave length of 517 nm of the test solution and of a solution containing only DPPH in the same amount as in the test solution; and then the inhibition induced by the precursor towards radical production by DPPH is calculated as a percentage by means of the following formula: (1−AS/AC)×100 wherein AS and AC are respectively the absorbance values of the solution containing the test compound+DPPH and that of the solution containing only DPPH; the acceptance criterium of the compounds according to this test is the following: test 4 is met by B or B1 precursor compounds if the inhibition percentage as above defined is higher than or equal to 50%;
Test 4 is a […] test which affords to establish whether the orecursors of B or B1 inhibit the production of radicals from DPPH (2,2-diphenyl-1-picryl-hydrazyl) (M. S. Nenseter et Al., Atheroscler. Thromb. 15, 1338-1344, 1995). 100 μM solutions in methanol of the tested substances are prepared, and an aliquot of each of said solutions is added to a DPPH solution in methanol […]. After having stored the solutions at room temperature away from light for 30 minutes, their absorbances are read at the wave length of 517 nm, together with that of the corresponding DPPH solution at the same concentration. The absorbance decrease with respect to that of the solution of DPPH at the same concentration of the test solutions is determined. The effectiveness of the tested compound in inhibiting formation of radicals by DPPH is expressed by the following formula: (1−AS/AC)×100 wherein AS and AC are respectively the absorbance values of the solution containing the test compound together with DPPH and of the solution containing only DPPH; the compounds precursor of B or B1 meet test 4 when the inhibition percentage of radical production from DPPH, expressed as a percentage according to the above equation, is higher than or equal co 50% at the indicated concentration (10^−4 M).
The method is based on a colorimetric test in which DPPH (2,2-diphenyl-1-picryl-hydrazyl) is used as the compound-forming radicals (M. S. Nenseter et Al., Atheroscler. Thromb. 15, 1338-1344, 1995).
Solutions in methanol of the tested substances at a final concentration 100 μM are initially prepared. 0.1 ml of each of these solutions are added to aliquots of 1 ml of a methanol solution […] of DPPH and then the final volume is brought to 1.5 ml. After having stored the solutions at room temperature away from light for 30 minutes, the absorbance at the wave length of […] is read. It is determined the absorbance decrease with respect to the absorbance of a solution containing the same concentration of DPPH.
The efficacy of the test compound to inhibit the production of radicals, otherwise said antiradical activity, is expressed by the following formula: (1−AS/AC)×100 wherein AS and AC are, respectively, the absorbance values of the solution containing the test compound together+DPPH and of the solution containing only DPPH. […]

[4] = Test 5: inhibition of radical production from Fe^II (desoxyribose degradation); conditions: 10^-4 M methanolic solution, 37° C. for one hour, absorbance at 532 nm
Experimental: […]
Test 5 is a […] test wherein 0.1 ml aliquots of 10^−4 M methanolic solutions of the tested products are added to test tubes containing a solution formed by 0.2 ml of 2 mM desoxyribose, 0.4 ml of phosphate buffer pH 7.4 100 mM and 0.1 ml of 1 mM Fe^II(NH4)2(SO4)2 in 2 mM HCl. […] A pink coloration is developed the intensity of which is proportional to the quantity of desoxyribose undergone to radical oxidative degradation. The solutions are cooled at room temperature and their absorbances are read at 532 nm against the blank. The inhibition induced by the precursor of B or B1 or C=-TC-Y—H in comparison with the radical production by Fe^II is determined by means of the following formula: (1−AS/AC)×100 wherein AS and AC are respectively the absorbance values of the solution containing the tested compound+the iron salt and that of the solution containing only the iron salt, the compound meets test 5 when the inhibition percentage of radical production as above defined from the precursor of B or B1 or C=-TC-Y—H is higher than or equal to 50%. […]

With `CC(=O)N[C@@H](CSC(=O)CCCO[N+](=O)[O-])C(=O)OCC(=O)[C@@]1(O)[C@H](C)C[C@H]2[C@@H]3CCC4=CC(=O)C=C[C@]4(C)[C@@]3(F)[C@@H](O)C[C@@]21C` [Example 5, (11β,16α)-9-Fluoro-11,17-dihydroxy-21[N-acetyl-S-(4-nitroxybutyroyl)cysteinyloxy]-16-methylpregn-1,4-diene-3,20-dione] as the compound, how does the “Blood pressure variation %” value ([1]; 5 mg/kg) read?
Its value is 103%.

What about the “Blood pressure variation %” value ([1]; 42.5 mg/kg) of the same compound?
The value was 125%.

With `CC(=O)N[C@@H](CSC(=O)CCCO[N+](=O)[O-])C(=O)OCC(=O)[C@@]1(O)CC[C@H]2[C@@H]3CCC4=CC(=O)CC[C@]4(C)[C@H]3[C@@H](O)C[C@@]21C` [Example 4, (11β)-11,17-Dihydroxy-21[N-acetyl-S-(4-nitroxybutyroyl)cysteinyloxy]-pregn-4-ene-3,20-dione] as the compound, how does the “Blood pressure variation %” value ([1]; 10 mg/kg) read?
The value was 98%.

With `C[C@H](CCC(=O)O)[C@H]1CC[C@H]2[C@@H]3[C@H](O)C[C@@H]4C[C@H](O)CC[C@]4(C)[C@H]3CC[C@]12C` [chenodeoxycholic acid] as the compound, how does the GPT var. % [2] read?
Its GPT var. % is 150%.

With `COc1cc(/C=C/C(=O)OCCCCO[N+](=O)[O-])ccc1OC(=O)CC[C@@H](C)[C@H]1CCC2C3C(CC[C@@]21C)[C@@]1(C)CC[C@@H](O)C[C@H]1C[C@@H]3O` (stereo partly drawn) [Example 1, 3-[4-[(3α,5β,7β)-3,7-dihydroxycolan-24-oiloxy]-3-methoxyphenyl]-2-propenoic acid 4-nitroxybutyl ester] as the compound, how does the GPT var. % [2] read?
Its GPT var. % is 103%.

What about the GPT variation % ([2]; 175 mg/kg) of the same compound?
Its GPT variation % is 123%.

With `C[C@H](CCC(=O)O)[C@H]1CC[C@H]2[C@@H]3[C@@H](O)C[C@@H]4C[C@H](O)CC[C@]4(C)[C@H]3CC[C@]12C` [ursodesoxycholic acid] as the compound, how does the GPT var. % [2] read?
The GPT var. % was 130%.

For `O=C(O)C1CSCN1` (stereo not drawn) [4-thiazolidin carboxylic acid], which “% inhibition radical production from DPPH” value ([3]; 100 µM) is on record?
The value was “does not inhibit”.

What about the “% Radical Inhibition from Fe^II” value [4] of the same compound?
The value was 100%.

For `C[C@]12C=CC(=O)C=C1CC[C@@H]1[C@@H]2[C@@H](O)C[C@@]2(C)[C@H]1CC[C@]2(O)C(=O)CO` [prednisolone], which “Blood pressure variation %” value ([1]; 10 mg/kg) is on record?
Its value is 119%.

Which “% inhibition radical production from DPPH” value [3] does the source give for `CC(=O)N[C@@H](CS)C(=O)O` [N-acetylcysteine] here?
Its value is 100%.

Which “% inhibition radical production from DPPH” value ([3]; 100 µM) does the source give for `COc1cc(/C=C/C(=O)O)ccc1O` [Ferulic acid] here?
Its value is 100%.

Which GPT var. % [2] does the source give for `COc1cc(/C=C/C(=O)OCCCCO[N+](=O)[O-])ccc1OC(=O)CC[C@@H](C)[C@H]1CCC2C3C(CC[C@@]21C)[C@@]1(C)CC[C@@H](O)C[C@H]1C[C@H]3O` (stereo partly drawn) [Example 2, 3-[4-[(3α,5β,7α)-3,7-dihydroxycolan-24-oiloxy]-3-methoxyphenyl]-2-propenoic acid 4-nitroxybutyl ester] here?
The GPT var. % was 105%.

Which “% inhibition radical production from DPPH” value ([3]; 100 µM) does the source give for `N[C@@H](CS)C(=O)O` [Cysteine] here?
The value was 100%.

With `CC(=O)N[C@@H](CSC(=O)CCCO[N+](=O)[O-])C(=O)OCC(=O)[C@@]1(O)CC[C@H]2[C@@H]3CCC4=CC(=O)C=C[C@]4(C)[C@H]3[C@@H](O)C[C@@]21C` [Example 3, (11β)-11,17-dihydroxy-21[N-acetyl-S-(4-nitroxybutyroyl)cysteinyloxy]-pregn-1,4-diene-3,20-dione] as the compound, how does the “Blood pressure variation %” value ([1]; 10 mg/kg) read?
The value was 102%.

Which “Blood pressure variation %” value ([1]; 5 mg/kg) does the source give for `C[C@@H]1C[C@H]2[C@@H]3CCC4=CC(=O)C=C[C@]4(C)[C@@]3(F)[C@@H](O)C[C@]2(C)[C@@]1(O)C(=O)CO` [dexamethasone] here?
The value was 125%.

For `O=C(O)c1cc(O)ccc1O` [Gentisic acid], which “% inhibition radical production from DPPH” value ([3]; 100 µM) is on record?
The value was 80%.

Which “Blood pressure variation %” value ([1]; 10 mg/kg) does the source give for `C[C@]12CCC(=O)C=C1CC[C@@H]1[C@@H]2[C@@H](O)C[C@@]2(C)[C@H]1CC[C@]2(O)C(=O)CO` [hydrocortisone] here?
Its value is 115%.
